Read-outs that look alike come from different tables or passages of the source.
What was measured:
[1] = tested on: Burkholderia vietnamiensis (LMG 18835); assay: Sensitivity to C-390 in medium W; format: cell-based; parameters: key: NG: no growth; Tr: traces
Experimental: (§1) An evaluation of the sensitivity to C-390 of various microorganisms capable of infecting the airways was carried out. This evaluation was carried out using medium W of example 4, containing a variable concentration of C-390. Table 10 below collates the observations collected with regard to the intensity of growth of the strains tested as a function of the C-390 concentration of the medium. The abbreviations NG (“no growth”) and Tr (“traces”) signify that no growth was observed or only a few not very significant traces.

[2] = tested on: Burkholderia dolosa (LMG21820); assay: Sensitivity to C-390 in medium W; format: cell-based; parameters: key: NG: no growth; Tr: traces
Experimental: as §1

[3] = tested on: Burkholderia multivorans (LMG 18822); assay: Sensitivity to C-390 in medium W; format: cell-based; parameters: key: NG: no growth; Tr: traces
Experimental: as §1

[4] = tested on: Burkholderia cenocepacia (LMG 18832); assay: Sensitivity to C-390 in medium W; format: cell-based; parameters: key: NG: no growth; Tr: traces
Experimental: as §1

[5] = tested on: Burkholderia cenocepacia (640328); assay: Sensitivity to C-390 in medium W; format: cell-based; parameters: key: NG: no growth; Tr: traces
Experimental: as §1

[6] = tested on: Burkholderia cepacia (LMG 1222); assay: Sensitivity to C-390 in medium W; format: cell-based; parameters: key: NG: no growth; Tr: traces
Experimental: as §1

[7] = tested on: Burkholderia gladioli (ENV); assay: Sensitivity to C-390 in medium W; format: cell-based; parameters: key: NG: no growth; Tr: traces
Experimental: as §1

[8] = tested on: Burkholderia multivorans (LMG 18824); assay: Sensitivity to C-390 in medium W; format: cell-based; parameters: key: NG: no growth; Tr: traces
Experimental: as §1

[9] = tested on: Burkholderia cenocepacia (LMG 18830); assay: Sensitivity to C-390 in medium W; format: cell-based; parameters: key: NG: no growth; Tr: traces; settings: C-390 32 mg/l in medium W
Experimental: as §1

[10] = tested on: Burkholderia cenocepacia (672834P); assay: Sensitivity to C-390 in medium W; format: cell-based; parameters: key: NG: no growth; Tr: traces
Experimental: as §1

[11] = tested on: Geosmithia argillacea (Anon); assay: Sensitivity to C-390 in medium W; format: cell-based; parameters: key: NG: no growth; Tr: traces
Experimental: as §1

[12] = tested on: Gram-positive bacteria; settings: 10 strains, 7 days

Question: What does the source list for `CCN(CC)c1ccc(C2(Cl)c3ccccc3N(c3ccccc3)c3ccccc32)cc1` [Medium C-390, 9-chloro-9-(4′-diethylamino)phenyl-9,10-dihydro-10-phenylacridine]?
Answer: intensity of growth ([1]; C-390 1 mg/l in medium W): NG; intensity of growth ([1]; C-390 2 mg/l in medium W): NG; intensity of growth ([1]; C-390 4 mg/l in medium W): NG; intensity of growth ([1]; C-390 8 mg/l in medium W): NG; intensity of growth ([1]; C-390 16 mg/l in medium W): NG; intensity of growth ([1]; C-390 32 mg/l in medium W): NG; intensity of growth ([2]; C-390 1 mg/l in medium W): Tr; intensity of growth ([2]; C-390 2 mg/l in medium W): NG; intensity of growth ([2]; C-390 4 mg/l in medium W): NG; intensity of growth ([2]; C-390 8 mg/l in medium W): NG; intensity of growth ([2]; C-390 16 mg/l in medium W): NG; intensity of growth ([2]; C-390 32 mg/l in medium W): NG; intensity of growth ([3]; C-390 4 mg/l in medium W): NG; intensity of growth ([3]; C-390 8 mg/l in medium W): NG; intensity of growth ([3]; C-390 16 mg/l in medium W): NG; intensity of growth ([3]; C-390 32 mg/l in medium W): NG; intensity of growth ([4]; C-390 8 mg/l in medium W): NG; intensity of growth ([4]; C-390 16 mg/l in medium W): NG; intensity of growth ([4]; C-390 32 mg/l in medium W): NG; intensity of growth ([5]; C-390 16 mg/l in medium W): NG; intensity of growth ([5]; C-390 32 mg/l in medium W): NG; intensity of growth ([6]; C-390 2 mg/l in medium W): Tr; intensity of growth ([6]; C-390 4 mg/l in medium W): NG; intensity of growth ([6]; C-390 8 mg/l in medium W): NG; intensity of growth ([6]; C-390 16 mg/l in medium W): NG; intensity of growth ([6]; C-390 32 mg/l in medium W): NG; intensity of growth ([7]; C-390 16 mg/l in medium W): NG; intensity of growth ([7]; C-390 32 mg/l in medium W): NG; intensity of growth ([8]; C-390 4 mg/l in medium W): NG; intensity of growth ([8]; C-390 8 mg/l in medium W): NG; intensity of growth ([8]; C-390 16 mg/l in medium W): NG; intensity of growth ([8]; C-390 32 mg/l in medium W): NG; intensity of growth [9]: NG; intensity of growth ([10]; C-390 8 mg/l in medium W): NG; intensity of growth ([10]; C-390 16 mg/l in medium W): NG; intensity of growth ([10]; C-390 32 mg/l in medium W): NG; intensity of growth ([11]; C-390 0.5 mg/l in medium W): NG; intensity of growth ([11]; C-390 1 mg/l in medium W): NG; intensity of growth ([11]; C-390 2 mg/l in medium W): NG; intensity of growth ([11]; C-390 4 mg/l in medium W): NG; intensity of growth ([11]; C-390 8 mg/l in medium W): NG; intensity of growth ([11]; C-390 16 mg/l in medium W): NG; intensity of growth ([11]; C-390 32 mg/l in medium W): NG; Number of strains having shown growth ([12]; selective agent 32 mg/l in medium L): 0; Number of strains having shown growth ([12]; selective agent 64 mg/l in medium L): 0; Number of strains having shown growth ([12]; selective agent 128 mg/l in medium L): 0

From patent US20180030500A1, “ENRICHMENT AND SELECTIVE CULTURE OF MYCOBACTERIA” (priority 2015, published 2018)
